Assay results: patent US9555052B2, “Intrauterine fetal growth restriction—the biochemical rationale of treatment modalities including extraperitoneal transamniotic fetal supplements” (priority 2003, dated 2017)
Like-named read-outs stand apart in the source and are kept apart here.

Assays:
[1] = system: rabbit fetus; conditions: cited from earlier work
[2] = 25 G IV bolus over 3-5 minutes, cited from earlier work
[3] = system: Human Umbilical Vessel Endothelial cells (HUVEC); conditions: cited from earlier work
[4] = system: severely growth restricted fetus (fetal IUGR); experiment: Clinical case study: severe fetal IUGR treated with maternal IV hypertonic D-glucose bolus; assay type: in vivo, human
From the text: At the outset, it is relevant to describe a clinical case study of successfully treating a severe case of fetal IUGR, during the years 1983-84, by the Author Inventor as a practicing ob/gyn. in India, as it is the basis for this writing of significant depth that aided the author inventor decades later to fully comprehend what was once successfully treated, but was only incompletely understood at that time.
They were well nourished and was from good socioeconomic background, and there were no obvious etiological factors, that could be accounted for the identified fetal IUGR. After monitoring the growth of the fetus by assessing fundal height (a clinical norm of fetal measure in the past) for 3-4 more weeks, it was confirmed that the uterine size was not progressing, and that the patient had severely growth restricted fetus. […] The patient had more frequent pre-natal follow ups, and the treatment was diligently continued with increments, as also the patient was admirably cooperative. Nearing term, they were delivered by elective cesarean section.
The observed fetal growth restriction was undoubtedly severe, but with mere hypertonic intravenous D-glucose treatment and no other (except for standard doses of prenatal vitamins and minerals), the […] delivered an AGA baby, who obviously had caught up with standard growth curve, as though glucose supplement alone, and nothing else was needed.

[5] = system: all tissues types; conditions: cited from earlier work

Molecule: O=C[C@H](O)[C@@H](O)[C@H](O)[C@H](O)CO [D-glucose]
- reversal of growth restriction ([1]; Flake et al, natural runt rabbit fetus, solutions alone or in combination): did not reverse growth restriction
- fetal weight ([1]; Mulvihill et al 1985, pregnant rabbit models, transamniotic): increase in fetal weight
- blood glucose level (peak) ([2]; at 15 minutes): 175 mg %
- blood glucose level ([2]; at 30 minutes): 125 mg %
- blood glucose level ([2]; at 1 hour): 75 mg %
- blood glucose level ([2]; during the second hour): 70 mg %
- CGMP accumulation [3]: increased
- L-Arginine transport [3]: increased
- fetal growth response ([4]; 20% IV bolus 50 cc twice daily to the parent, observed in 2-3 weeks): undoubted and immediate catch up of fetal growth
- birth weight for gestational age ([4]; at delivery nearing term): appropriate for the gestational age (AGA)
- Apgar score of the baby ([4]; elective cesarean nearing term after continued treatment with increments): 10
- adverse effects in the mother due to induced maternal hyperglycemia ([4]; throughout gestation): No adverse effects

Molecule: NCCCC[C@@H](N)C(=O)O [D-lysine]
- neovascular growth ([5]; all tissues types): induce neovascular growth

Molecule: NCCCC[C@H](N)C(=O)O [monomeric lysine, lysine]
- biomass (cell population) expansion ([5]; compared to other physicochemical means): expand biomass (cell population) at the least possible time

Molecule: insulin
- CGMP accumulation [3]: increased
- L-Arginine transport [3]: increased
